A short description of series [1]: Cytotoxicity of alkyl lipids, neutral red dye uptake (Table 1). Type of series: cell-based. To be noted: human, hep-g2 cells. In outline:
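HepG2 cells carrying tandem HBV genomes, with a G418-resistance plasmid, were given four serial compound concentrations in triplicate in RPMI-1640 for nine days at 37° C, with periodic medium replacement. Viability was measured by 0.01% neutral red uptake (A510) and expressed as percent of untreated control wells ±SD.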

A further series has as its system Hepatitis B virus. Briefly: Effect of alkyl lipid on HBV induction of antigen markers, DNA and RNA in persistently infected human HEP-G2 cell cultures (Table 8). Type of series: cell-based. The conditions noted are these: for activity at 10 µM: Hepatitis B virus, HepG2, 216 h. How it is done:
Further analyses were carried out with compound CP-51. Again, the cells were treated for nine days at 37° C. The overlay medium was harvested to measure levels of HBsAg, HBeAg, HBcAg, virion DNA, RI DNA and RNA levels. HBsAg and HBeAg were assayed by EIA (Abbott Laboratories). HBcAg was assayed by a solid phase EIA. HBV RNA was analyzed by Northern blot hybridization using a ^32 P-labelled 3.2 Kb genomic probe. Intracellular HBV RNA and RI HBV DNA was quantitated using a AMBIS beta scanner.

Series [2] has as its system HEP G2 cells persistently infected with HBV. Briefly: Cytotoxicity in HBV persistently infected human HEP G2 cells, neutral red dye uptake (Table 5). Type of series: cell-based. In outline:
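HBV-transfected HEP-G2 monolayers in RPMI-1640 were given compound at four serial concentrations in triplicate for nine days at 37 °C, with periodic medium replacement. Toxicity from 0.01% neutral red uptake (A510), as percent of nine untreated control wells on the same plate.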

A further series deals with HIV-1. Type of series: in vivo. The conditions noted are these: rat, single oral dose of 15 mg/kg by gavage. How it is done:
The biologic activity of alkyl lipid CP-51 was evaluated in vivo. Sprague Dawley rats were fasted for 18 hours and received a single oral dose of 15 mg/kg of the alkyl lipid CP-51 by gavage. An in-dwelling carotid catheter was used to harvest whole blood at various times post-dose. The plasma containing the alkyl lipid was diluted 1:2 to 1:128 in phosphate buffered saline and assayed for biologic activity using the HIV-1 syncytial plaque test. CEM-SS cell monolayers were infected with HIV-1 and overlaid with RPMI-1640 medium containing serial dilutions of plasma. After incubation for five days at 37° C., the number of HIV-1 syncytial plaques was counted as previously described (Kucera et al., AIDS Res. Human Retroviruses, 6: 491-501, (1990)).

Series [3] relates to mouse precursor erythrocyte (CFU-E). Briefly: Cytotoxicity: inhibition of mouse precursor erythrocyte (CFU-E) colony formation. Type of series: cell-based. How it is done: CP-51 and AZT were assayed for cytotoxicity by inhibition of mouse precursor erythrocyte (CFU-E) and granulocyte/macrophage (CFU-GM) cell colony formation.
Series [4] has as its system granulocyte/macrophage (CFU-GM). Briefly: Cytotoxicity: inhibition of mouse granulocyte/macrophage (CFU-GM) colony formation. The conditions noted are these: read-out: inhibitory concentration 50% for colony formation (IC50). The series is classed as cell-based. How it is done:
CP-51 and AZT were assayed for cytotoxicity by inhibition of mouse precursor erythrocyte (CFU-E) and granulocyte/macrophage (CFU-GM) cell colony formation. Mouse bone marrow precursor cells were suspended in soft-agar-RPMI-1640 medium supplmented with cell growth factors and serial concentrations of alkyl lipid.

In a further series the test system is Friend-Leukemia virus. Description: Inhibition of retrovirus-induced splenomegaly in Friend-Leukemia virus infected mice (Table 9). Type of series: in vivo. How it is done: Mice were infected I.P. with Friend-Leukemia virus and not treated or treated I.P. with daily doses of phospholipid. After 14 days infection and treatment, the mice were sacrificed, the spleens were removed and weighed to determine the percentage, of control splenomegaly. […] Even a single dose of 25 mg/kg CP-51 inhibited splenomegaly by 36%.

≈ marks a conversion by molar mass, not a printed value. Like-named read-outs stand apart in the source and are kept apart here.

For the molecule `Nc1ccn([C@H]2CC[C@@H](CO)O2)c(=O)n1` [2',3'-dideoxycytidine, 2', 3'-dideoxycytidine, reference compound], in series [1], the viability (in general, a read-out of living cells in per cent, often relative to untreated cells) at 216 h, 3 µM is 100 ± 1%. In addition, the viability at 216 h, 10 µM in series [1] came out at 102 ± 1%. In series [1], the viability at 216 h, 30 µM was found to be 99 ± 2%. Also, in series [1], the viability at 216 h, 100 µM is 35 ± 2%. Further, the activity at 10 µM in the series on Hepatitis B virus (read-out: Relative Level of HBcAg) came out at 102%; with Hepatitis B virus (read-out: Relative Level of HBeAg) it was 95%; in the series with Hepatitis B virus (read-out: Relative Level of HBsAg), 96%; in the series on Hepatitis B virus (read-out: Relative Level of Intracellular HBV-DNA) it was 6%; in the series with Hepatitis B virus (read-out: Relative Level of RI DNA) it was 46%; in the series on Hepatitis B virus (read-out: Relative Level of Total RNA), 92%. Moreover, in the series on Hepatitis B virus (read-out: Relative Level of Virion DNA), the activity at 10 µM came to 2%.

In series [1], `CCCCCCCCCCCCCCCCCC(=O)NCC(COP(=O)([O-])OCC[N+](C)(C)C)OCC` (racemic) [CP-51, rac-3-octadecanamido-2-ethyoxy-1-propylphosphocholine] displayed a cytotoxicity at 216 h, 30 µM of 4%. In series [1], this molecule had a cytotoxicity at 216 h, 100 µM of 29%. In series [1], the viability at 216 h, 3 µM amounted to 101 ± 1%. The viability at 216 h, 10 µM in series [1] turned out to be 100 ± 4%. In addition, the viability at 216 h, 30 µM in series [1] worked out at 96 ± 2%. Moreover, the viability at 216 h, 100 µM in series [1] came out at 71 ± 1%. For the same molecule, the “Cell toxicity (greater than 50% depression of dye uptake)” value in series [2] was “did not occur”. In series [2] (human, hep-g2 cells, 216 h, 3 µM), the “% of Control Neutral Red Dye Uptake” value is on record as 101 ± 1 % of Control. The activity at 10 µM in the series with Hepatitis B virus (10 μM, nine days, untreated controls 100, read-out: Relative Level of HBcAg) came to 32%; in the series on Hepatitis B virus (10 μM, nine days, untreated controls 100, read-out: Relative Level of HBeAg), 24%; in the series with Hepatitis B virus (10 μM, nine days, untreated controls 100, read-out: Relative Level of HBsAg), 88%; with Hepatitis B virus (10 μM, nine days, untreated controls 100, read-out: Relative Level of Intracellular HBV-DNA), 12%; in the series on Hepatitis B virus (10 μM, nine days, untreated controls 100, read-out: Relative Level of RI DNA), 42%; with Hepatitis B virus (10 μM, nine days, untreated controls 100, read-out: Relative Level of Total RNA), 84%. The activity at 10 µM with Hepatitis B virus (10 μM, nine days, untreated controls 100, read-out: Relative Level of Virion DNA) came to 2%. Further, the “inhibition of Hepatitis B core antigen (HBcAg) levels” value in the series with Hepatitis B virus (in words) is listed as “significantly inhibited”. Further, the “level or size of HBV induced RNA transcripts of HBsAg” value in the series on Hepatitis B virus (in words) is reported as “did not significantly alter”. The “absorption into the blood” value in the series with HIV-1 was “rapidly absorbed into the blood of rats”. Besides, the “biologically active concentrations in the blood (plasma)” value in the series with HIV-1 (HIV-1 syncytial plaque test) is “biologically active concentrations of the compound CP-51 were obtained in the blood (plasma)”. Moreover, the “cytotoxicity relative to AZT” value in series [3] (CFU-E and CFU-GM, in words) was “significantly less cytotoxic than AZT”. Besides, the IC50 in series [3] (Mus musculus, Erythrocyte, read-out: inhibitory concentration 50% for colony formation (IC50)) turned out to be 41 µg/mL (≈ 74.4 µM); in series [4], 11 µg/mL (≈ 20 µM). The “inhibition of retrovirus-induced splenomegaly” value with Friend-Leukemia virus (12.5 mg/kg/day intraperitoneally) is given as 43%; with Friend-Leukemia virus (single dose of 25 mg/kg), 36%. In addition, the “% of Control Splenomegaly” value in the series with Friend-Leukemia virus (12.5 mg/kg/day, daily treatment) was 43 % of Control; in the series on Friend-Leukemia virus (25 mg/kg, one treatment), 36 % of Control. Besides, in the series with Friend-Leukemia virus (in words), the “anti-retrovirus activity in infected animals” value is “has anti-retrovirus activity in infected animals”.

Source of the values: patent publication US6030960A, “Method of treating hepatitis virus infections” (priority 1998, dated 2000).
